How the values were obtained:
A2780 cells = test: Viability assay in A2780 (Cell Titer Glo); type: cell-based, human; details: Homo sapiens; A2780 cells; read-out: A2780 Cell prolif. EC50
Description: Cell viability was assessed with Cell Titer Glo assay, Promega. Cells were seeded in TC treated 96-well plates at a density of 1,000 (A2780 cells) per well in DMEM with 10% FBS, 1% Sodium Pyruvate, and 1% Penicillin Streptomycin for a minimum of 2 hrs prior to addition of compound. Test compounds were serially diluted (3 fold) in DMSO to 500× the final concentration. For each concentration of test compound, 2 μL (500×) aliquots of compound or 100% DMSO (control) were diluted in 500 μL of culture medium to 2× final concentration then diluted 1× on the cells. Cells were incubated for 72 hrs at 37° C., 5% CO2. After which Cell Titer Glo is added to determine viable cells, the assay was performed according to the manufacturer's instruction (Promega Corporation, Madison, Wis. USA). Each experimental condition was performed in duplicate. Raw data was imported in Abase and EC50s calculated with XL-fit data analysis software and are shown in Tables 1 and 2 in the column labeled “A2780 Cell prolif. EC50”.

PI3 K Alpha = PI3 K Alpha (Homo sapiens, UniProt P42336); test: PI3 kinase phosphorylation assays (homogenous solution phase, one step solid phase, ATP depletion/KinaseGlo); type: biochemical; details: read-out: PI3K Alpha IC50
Description: Compounds to be tested are dissolved in DMSO and directly distributed into 384-well flashplates at 1.25 μL per well. To start the reaction, 20 μL of 6 nM PI3 kinase are added into each well followed by 20 μL of 400 nM ATP containing a trace of radiolabeled ATP and 900 nM 1-alpha-phosphatidylinositol (PI). The plates are briefly centrifuged to remove any air gap. The reaction is performed for 15 minutes and then stopped by the addition of 20 μL of 100 mM EDTA. The stopped reaction is incubated overnight at RT to allow the lipid substrate to bind by hydrophobic interaction to the surface of the flashplate. The liquid in the wells is then washed away, and the labeled substrate is detected with scintillation counting.
This method is similar to Assay 1 except that the lipid substrate (1-alpha-phosphatidylinositol (PI)) is first dissolved in a coating buffer and incubated on flashplate at room temperature overnight to allow the lipid substrate to bind by hydrophobic interaction to the surface of the flashplate. Unbound substrate is then washed away. On the day of assay, 20 μL of 6 nM PI3 kinase are added into each well followed by 20 μL of 400 nM ATP containing trace of radiolabeled ATP. Compounds are added together with enzyme and ATP to the lipid-coated plates. The plates are briefly centrifuged to remove any air gap. The reaction is performed for two to three hours. The reaction is stopped by addition of 20 μL of 100 mM EDTA or by immediate plate washing. Phosphorylated lipid substrate is detected by scintillation counting.
Compounds to be tested are dissolved in DMSO and directly distributed into a black 384-well plate at 1.25 μL per well. To start the reaction, 25 μL of 10 nM PI3 kinase and 5 μg/mL 1-alpha-phosphatidylinositol (PI) are added into each well followed by 25 μL of 2 μM ATP. The reaction is performed until approx 50% of the ATP is depleted, and then stopped by the addition of 25 μL of KinaseGlo solution. The stopped reaction is incubated for 5 minutes and the remaining ATP is then detected via luminescence.

Sequence of PI3 K Alpha (P42336 whole entry): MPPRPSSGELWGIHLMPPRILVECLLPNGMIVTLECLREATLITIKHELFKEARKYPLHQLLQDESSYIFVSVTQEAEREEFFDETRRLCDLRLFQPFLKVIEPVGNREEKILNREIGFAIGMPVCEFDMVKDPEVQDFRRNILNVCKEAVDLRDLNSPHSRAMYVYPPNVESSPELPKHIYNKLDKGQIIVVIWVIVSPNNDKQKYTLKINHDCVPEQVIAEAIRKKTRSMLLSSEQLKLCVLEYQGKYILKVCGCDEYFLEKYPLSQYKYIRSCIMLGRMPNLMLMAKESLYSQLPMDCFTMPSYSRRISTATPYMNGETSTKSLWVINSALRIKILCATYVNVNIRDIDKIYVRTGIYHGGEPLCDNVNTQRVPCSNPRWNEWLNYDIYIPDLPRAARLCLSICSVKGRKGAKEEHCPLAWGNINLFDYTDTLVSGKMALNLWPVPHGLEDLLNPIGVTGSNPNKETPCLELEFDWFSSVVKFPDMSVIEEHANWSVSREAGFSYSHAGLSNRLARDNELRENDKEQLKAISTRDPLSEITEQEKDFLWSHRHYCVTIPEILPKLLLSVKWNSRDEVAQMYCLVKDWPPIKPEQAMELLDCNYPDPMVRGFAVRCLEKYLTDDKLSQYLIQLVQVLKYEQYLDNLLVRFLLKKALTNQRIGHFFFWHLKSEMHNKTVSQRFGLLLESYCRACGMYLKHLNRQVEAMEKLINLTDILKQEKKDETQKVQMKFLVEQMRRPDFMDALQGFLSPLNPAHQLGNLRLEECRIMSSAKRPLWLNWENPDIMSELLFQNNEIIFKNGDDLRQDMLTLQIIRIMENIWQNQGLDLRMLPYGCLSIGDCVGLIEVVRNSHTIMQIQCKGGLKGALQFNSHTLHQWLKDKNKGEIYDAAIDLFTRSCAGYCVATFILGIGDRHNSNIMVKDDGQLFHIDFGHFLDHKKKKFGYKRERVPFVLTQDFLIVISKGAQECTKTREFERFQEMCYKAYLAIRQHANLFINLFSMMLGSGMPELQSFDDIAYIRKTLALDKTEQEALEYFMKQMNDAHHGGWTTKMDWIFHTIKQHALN
Sequence of PI3 K Alpha (P27986 whole entry partner): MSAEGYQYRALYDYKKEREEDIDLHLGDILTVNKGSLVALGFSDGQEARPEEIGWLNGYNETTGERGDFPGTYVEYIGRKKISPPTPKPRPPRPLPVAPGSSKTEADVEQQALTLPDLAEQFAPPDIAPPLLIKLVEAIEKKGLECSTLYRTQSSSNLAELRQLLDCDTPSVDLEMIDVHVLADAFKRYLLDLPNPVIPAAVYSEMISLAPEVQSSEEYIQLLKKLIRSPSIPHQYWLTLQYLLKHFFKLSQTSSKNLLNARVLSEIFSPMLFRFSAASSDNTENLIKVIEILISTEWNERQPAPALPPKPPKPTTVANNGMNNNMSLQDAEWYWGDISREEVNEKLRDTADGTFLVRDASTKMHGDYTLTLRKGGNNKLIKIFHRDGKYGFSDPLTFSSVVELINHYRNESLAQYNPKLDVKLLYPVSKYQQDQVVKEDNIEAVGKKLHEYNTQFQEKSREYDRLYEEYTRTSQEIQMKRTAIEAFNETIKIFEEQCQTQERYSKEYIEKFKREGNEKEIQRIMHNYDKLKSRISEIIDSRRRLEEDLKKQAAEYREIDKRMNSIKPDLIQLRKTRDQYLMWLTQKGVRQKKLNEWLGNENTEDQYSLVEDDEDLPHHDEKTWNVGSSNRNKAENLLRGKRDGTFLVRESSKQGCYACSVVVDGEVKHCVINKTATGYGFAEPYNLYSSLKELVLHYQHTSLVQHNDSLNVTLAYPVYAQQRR

Structure (SMILES)	EC50 (A2780 cells)	IC50 (PI3 K Alpha)
CC(C)(C)OC(=O)NCCC(=O)Nc1cn2nc(-c3cnc(N)c(C(F)(F)F)c3)ccc2n1 [Example 231, tert-butyl 3-(6-(6-amino-5-(trifluoromethyl)pyridin-3-yl)imidazo[1,2-b]pyridazin-2-ylamino)-3-oxopropyl-carbamate]	< 10 µM	< 1 µM
Nc1ncc(-c2ccc3nc(NC(=O)C4CNC4)cn3c2)cc1C(F)(F)F [Example 256, N-(6-(6-amino-5-(trifluoromethyl)pyridin-3-yl)imidazo[1,2-a]pyridin-2-yl)azetidine-3-carboxamide]	< 10 µM	< 1 µM
CNC(=O)C1CCN(C(=O)Nc2cn3cc(-c4cnc(N)c(C(F)(F)F)c4)ccc3n2)C1 (stereo not drawn) [Example 154, N1-(6-(6-amino-5-(trifluoromethyl)pyridin-3-yl)imidazo[1,2-a]pyridin-2-yl)-N3-methylpyrrolidine-1,3-dicarboxamide]	< 25 µM	< 1 µM
CCN(CC)Cc1cc(-c2ccc3nc(NC(C)=O)cn3c2)cnc1N [Example 181, N-(6-(6-amino-5-((diethylamino)methyl)pyridin-3-yl)imidazo[1,2-a]pyridin-2-yl)acetamide]	< 25 µM	< 1 µM
CC(=O)Nc1nc2ccc(-c3cnc(N)c(C(F)(F)F)c3)cn2c1C#CCNC(=O)OC(C)(C)C [Example 247, tert-butyl 3-(2-acetamido-6-(6-amino-5-(trifluoromethyl)pyridin-3-yl)imidazo[1,2-a]pyridin-3-yl)prop-2-ynylcarbamate]	< 10 µM	< 1 µM
Nc1ncc(-c2ccc3nc(NC(=O)C4CNC4)cn3n2)cc1Cl [Example 142, N-(6-(6-amino-5-chloropyridin-3-yl)imidazo[1,2-b]pyridazin-2-yl)azetidine-3-carboxamide]	< 25 µM	< 1 µM
CC(C)(C)OC(=O)N1CC(C(=O)Nc2cn3cc(-c4cnc(N)c(C(F)(F)F)c4)ccc3n2)C1 [Example 234, tert-butyl 3-(6-(6-amino-5-(trifluoromethyl)pyridin-3-yl)imidazo[1,2-a]pyridin-2-ylcarbamoyl) azetidine-1-carboxylate]	< 10 µM	< 1 µM
Nc1ncc(-c2ccc3nc(NC(=O)N4CC[C@H]4C(=O)O)cn3c2)cc1C(F)(F)F [Example 45, (S)-1-(6-(6-amino-5-(trifluoromethyl)pyridin-3-yl)imidazo[1,2-a]pyridin-2-ylcarbamoyl) azetidine-2-carboxylic acid]	< 25 µM	< 10 µM
CC(=O)Nc1cn2nc(-c3cnc(N)c(C(=O)NCCN4CCCC4)c3)ccc2n1 [Example 211, 5-(2-acetamido-imidazo[1,2-b]pyridazin-6-yl)-2-amino-N-(2-(pyrrolidin-1-yl)ethyl) nicotinamide]	< 10 µM	< 1 µM
CC(=O)NC1CCN(C(=O)Nc2cn3cc(-c4cnc(N)c(C(F)(F)F)c4)ccc3n2)C1 (stereo not drawn) [Example 146, 3-acetamido-N-(6-(6-amino-5-(trifluoromethyl)pyridin-3-yl)imidazo[1,2-a]pyridin-2-yl)pyrrolidine-1-carboxamide]	< 25 µM	< 1 µM
Nc1ncc(-c2ccc3nc(NC(=O)C4CCN4)cn3c2)nc1OCC(F)(F)F (stereo not drawn) [Example 229, N-(6-(5-amino-6-(2,2,2-trifluoroethoxy)pyrazin-2-yl)imidazo[1,2-a]pyridin-2-yl)azetidine-2-carboxamide]	< 10 µM	< 1 µM
CC(=O)Nc1cn2cc(-c3cnc(N)c(OC4CCN(C)CC4)n3)ccc2n1 [Example 40, N-(6-(5-amino-6-(1-methylpiperidin-4-yloxy)pyrazin-2-yl)imidazo[1,2-a]pyridin-2-yl)acetamide]	< 25 µM	< 10 µM

The remaining lines, values ahead:

EC50 (A2780 cells)	IC50 (PI3 K Alpha)	Structure (SMILES)
< 25 µM	< 1 µM	CC(=O)N1CCC[C@H]1C(=O)Nc1cn2cc(-c3cnc(N)c(C(F)(F)F)c3)ccc2n1 [Example 172, (S)-1-acetyl-N-(6-(6-amino-5-(trifluoromethyl)pyridin-3-yl)imidazo[1,2-a]pyridin-2-yl)pyrrolidine-2-carboxamide]
< 10 µM	< 1 µM	Nc1ncc(-c2ccc3nc(NC(=O)CN4CCCCC4)cn3c2)cc1C(F)(F)F [Example 198, N-(6-(6-amino-5-(trifluoromethyl)pyridin-3-yl)imidazo[1,2-a]pyridin-2-yl)-2-(piperidin-1-yl)acetamide]
< 10 µM	< 1 µM	CC(C)(C)OC(=O)N1CCCCC1CCC(=O)Nc1cn2nc(-c3cnc(N)c(C(F)(F)F)c3)ccc2n1 (stereo not drawn) [Example 250, tert-butyl 2-(3-(6-(6-amino-5-(trifluoromethyl)pyridin-3-yl)imidazo[1,2-b]pyridazin-2-ylamino)-3-oxopropyl) piperidine-1-carboxylate]
< 25 µM	< 1 µM	CC(=O)N1CCC[C@H]1C(=O)Nc1cn2cc(-c3cnc(N)c(Cl)c3)ccc2n1 [Example 182, (S)-1-acetyl-N-(6-(6-amino-5-chloropyridin-3-yl)imidazo[1,2-a]pyridin-2-yl)pyrrolidine-2-carboxamide]
< 25 µM	< 10 µM	COc1cc(-c2ccc3nc(NC(C)=O)cn3n2)c(C)nc1N [Example 43, N-(6-(6-amino-5-methoxy-2-methylpyridin-3-yl)imidazo[1,2-b]pyridazin-2-yl)acetamide]
< 25 µM	< 1 µM	CC(=O)Nc1cn2cc(-c3cnc(N)c(C(=O)NCCO)n3)ccc2n1 [Example 147, 6-(2-acetamido-imidazo[1,2-a]pyridin-6-yl)-3-amino-N-(2-hydroxyethyl) pyrazine-2-carboxamide]
< 25 µM	< 1 µM	CC(=O)Nc1ccc(-c2c(NC(C)=O)nc3ccc(-c4cnc(N)c(C(F)(F)F)c4)cn23)cc1 [Example 162]
< 10 µM	< 1 µM	CN(CC(=O)Nc1cn2cc(-c3cnc(N)c(C(F)(F)F)c3)ccc2n1)C(=O)OC(C)(C)C [Example 244, tert-butyl 2-(6-(6-amino-5-(trifluoromethyl)pyridin-3-yl)imidazo[1,2-a]pyridin-2-ylamino)-2-oxoethyl(methyl) carbamate]
< 10 µM	< 1 µM	Nc1ncc(-c2ccc3nc(NC(=O)[C@@H]4CCN4)cn3c2)cc1C(F)(F)F [Example 228, (S)-N-(6-(6-amino-5-(trifluoromethyl)pyridin-3-yl)imidazo[1,2-a]pyridin-2-yl)azetidine-2-carboxamide]
< 10 µM	< 1 µM	CC(=O)Nc1nc2ccc(-c3cnc(N)c(C(F)(F)F)c3)cn2c1C(N)=O [Example 243, 2-acetamido-6-(6-amino-5-(trifluoromethyl)pyridin-3-yl)imidazo[1,2-a]pyridine-3-carboxamide]
< 25 µM	< 1 µM	CO/N=C/c1cc(-c2ccc3nc(NC(C)=O)cn3c2)cnc1N [Example 150, (E)-N-(6-(6-amino-5-((methoxy-imino)methyl)pyridin-3-yl)imidazo[1,2-a]pyridin-2-yl)acetamide]
< 25 µM	< 1 µM	CC(=O)Nc1cn2nc(-c3cnc(N)cc3C(F)(F)F)ccc2n1 [Example 24, N-[6-(6-Amino-4-trifluoromethyl-pyridin-3-yl)-imidazo[1,2-b]pyridazin-2-yl]-acetamide]
< 10 µM	< 1 µM	CC(=O)Nc1cn2nc(-c3cnc(N)c(CN4CCCC4)c3)ccc2n1 [Example 242, N-(6-(6-amino-5-(pyrrolidin-1-ylmethyl)pyridin-3-yl)imidazo[1,2-b]pyridazin-2-yl)acetamide]
< 10 µM	< 1 µM	CCN1CCC(OCC(=O)Nc2cn3cc(-c4cnc(N)c(C(F)(F)F)c4)ccc3n2)CC1 [Example 221, N-(6-(6-amino-5-(trifluoromethyl)yl)imidazo[1,2-a]pyridin-2-yl)-2-(1-ethylpiperidin-4-yloxy)acetamide]
< 10 µM	< 1 µM	CC(=O)Nc1nc2ccc(-c3cnc(N)c(Br)c3)cn2c1Br [Example 15, N-[6-(6-Amino-5-bromo-pyridin-3-yl)-3-bromo-imidazo[1,2-a]pyridin-2-yl]-acetamide]

From patent US20100075965A1, “PI3 KINASE INHIBITORS AND METHODS OF THEIR USE” (Novartis AG, priority 2006, published 2010)
